# In patent publication US20040076974A1, “Liver necrosis predictive genes” (priority 2002, published 2004):
# Values joined by “and” are separate entries in the source; they are usually repeats but may differ in a detail not shown here. Equal entries are not always repeated. Where two headings read alike, the source gives them in different places.
# Tests used:
# [1] = system: toxicologically relevant rat genes (rat CT array)
# Sprague Dawley rats = system: Sprague Dawley rats
# How it was run: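 Toxicity calls (necrosis present or absent at 72 h) and histopathology scores were correlated with tissue gene expression from Crl:CD Sprague Dawley rats. Animals, usually 3 treated with compound by i.p. route and 3 given vehicle, were killed at 6, 24 or 72 h and tissues frozen immediately in liquid nitrogen.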
# [2] = 24 h, treatment/control, dose 2, listed as CHEX
structure (smiles),measurement,setting,value
C[C@@H]1C[C@@H]([C@H](O)CC2CC(=O)NC(=O)C2)C(=O)[C@@H](C)C1 [cycloheximide],Aflatoxin B1 aldehyde reductase expression,[1]; 24 h,0.3081 and 0.5569
same,3-hydroxyisobutyrate dehydrogenase expression,[1]; [2],0.7822 and 0.6854
same,14-3-3 zeta expression,[1]; [2],1.308 and 1.217
same,"17-beta hydroxysteroid dehydrogenase, type 2 expression",[1]; [2],0.8086 and 0.8289
same,60S ribosomal protein L6 expression,[1]; [2],4.046 and 3.164
same,ATPase inhibitor (rat mitochondrial IF1 protein) expression,[1]; [2],1.104
same,Alpha 1 - inhibitor III expression,[1]; [2],0.1985 and 0.3033
same,Alpha-2-macroglobulin expression,[1]; [2],8.537 and 10.8864
same,Bax (alpha) expression,[1]; [2],3.909 and 3.079
same,Beta-actin expression,[1]; [2],1.582
same,Calpactin I heavy chain expression,[1]; [2],1.21 and 1.278
same,Carbamyl phosphate synthetase I expression,[1]; [2],2.339 and 1.425
same,Carbonic anhydrase III expression,[1]; [2],0.09817 and 0.117
same,"Cathepsin L, sequence 2 expression",[1]; [2],3.293 and 1.752
same,Dynamin-1 (D100) expression,[1]; [2],0.7964 and 0.6968
same,Epidermal growth factor expression,[1]; [2],0.7851 and 0.8391
same,Equilbrative nitrobenzylthioinosine-sensitive nucleoside transporter expression,[1]; [2],0.434 and 0.4974
same,Fas antigen expression,[1]; [2],1.655 and 1.544
same,Gadd45 expression,[1]; [2],1.068 and 0.9225
same,Gadd153 expression,[1]; [2],2.348 and 2.179
same,"Gamma-actin, cytoplasmic expression",[1]; [2],2.831 and 2.8
same,Glucose-regulated protein 78 expression,[1]; [2],1.943
same,Hepatic lipase expression,[1]; [2],0.425 and 0.4085
same,ID-1 expression,[1]; [2],1.831 and 1.476
same,Insulin-like growth factor I expression,[1]; [2],0.632 and 0.7238
same,Insulin-like growth factor binding protein 1 expression,[1]; [2],1.891
same,Insulin-like growth factor binding protein 3 expression,[1]; [2],0.6015 and 0.8706
same,Integrin beta1 expression,[1]; [2],1.973 and 1.549
same,L-gulono-gamma-lactone oxidase expression,[1]; [2],0.1815 and 0.3251
same,Matrin F/G expression,[1]; [2],0.6684 and 0.8266
same,Monocyte chemotactic protein receptor (CCR2) expression,[1]; [2],1.356
same,Organic anion transporter 3 expression,[1]; [2],0.6196 and 0.8226
same,Organic cation transporter 3 expression,[1]; [2],3.288 and 2.799
same,Ornithine decarboxylase expression,[1]; [2],1.809 and 2.529
same,PAR interacting protein expression,[1]; [2],2.494 and 1.775
same,Phase-1 RCT 252 expression,[1]; [2],2.109
same,Phase-1 RCT-15 expression,[1]; [2],2.098
same,Phase-1 RCT-36 expression,[1]; [2],0.9535
same,Phase-1 RCT-38 expression,[1]; [2],0.8074 and 1.436
same,Phase-1 RCT-40 expression,[1]; [2],0.5868 and 0.6253
same,Phase-1 RCT-48 expression,[1]; [2],0.8259
same,Phase-1 RCT-50 expression,[1]; [2],3.394 and 1.867
same,Phase-1 RCT-78 expression,[1]; [2],0.6678 and 0.6463
same,Phase-1 RCT-83 expression,[1]; [2],0.7709 and 0.5883
same,Phase-1 RCT-88 expression,[1]; [2],0.5622 and 0.699
same,Phase-1 RCT-89 expression,[1]; [2],0.3912 and 0.666
same,Phase-1 RCT-92 expression,[1]; [2],0.5483 and 0.6236
same,Phase-1 RCT-102 expression,[1]; [2],0.1629 and 0.3219
same,Phase-1 RCT-117 expression,[1]; [2],0.5435 and 0.8114
same,Phase-1 RCT-128 expression,[1]; [2],0.7358 and 0.5601
same,Phase-1 RCT-137 expression,[1]; [2],0.897
same,Phase-1 RCT-144 expression,[1]; [2],1.698 and 1.552
same,Phase-1 RCT-145 expression,[1]; [2],1.962 and 1.531
same,Phase-1 RCT-152 expression,[1]; [2],3.068 and 2.149
same,Phase-1 RCT-179 expression,[1]; [2],1.874 and 1.726
same,Phase-1 RCT-180 expression,[1]; [2],1.992 and 1.731
same,Phase-1 RCT-182 expression,[1]; [2],0.648 and 0.4739
same,Phase-1 RCT-189 expression,[1]; [2],0.7556 and 0.7413
same,Phase-1 RCT-207 expression,[1]; [2],3.54 and 2.206
same,Phase-1 RCT-213 expression,[1]; [2],2.298 and 1.558
same,Phase-1 RCT-241 expression,[1]; [2],2.805 and 1.626
same,Phase-1 RCT-256 expression,[1]; [2],0.7478
same,Phase-1 RCT-264 expression,[1]; [2],0.3258 and 0.288
same,Phase-1 RCT-270 expression,[1]; [2],0.3824 and 0.3779
same,Phase-1 RCT-271 expression,[1]; [2],0.6863 and 0.7351
same,Phase-1 RCT-288 expression,[1]; [2],0.7066 and 0.6813
same,Phase-1 RCT-291 expression,[1]; [2],0.9117
same,Phase-1 RCT-295 expression,[1]; [2],1.809 and 1.772
same,Phase-1 RCT-296 expression,[1]; [2],0.1325 and 0.1028
same,Ribosomal protein L13A expression,[1]; [2],3.222 and 2.597
same,Ribosomal protein S17 expression,[1]; [2],3.701 and 3.311
same,Sodium/bile acid cotransporter expression,[1]; [2],0.2803 and 0.3733
same,Transthyretin expression,[1]; [2],0.3341 and 0.2879
same,Ubiquitin conjugating enzyme (RAD 6 homologue) expression,[1]; [2],1.788 and 1.624
same,c-jun expression,[1]; [2],1.591 and 1.111
same,c-myc expression,[1]; [2],1.683 and 1.143
same,Paraoxonase 1 expression,"[1]; rat, in vivo",0.4607 and 0.4822
same,Liver Toxicity Necrosis Classification,"Sprague Dawley rats; 72 h, dose 0.5",no
same,Liver Toxicity Necrosis Classification,Sprague Dawley rats; 72 h; dose 2; animals 2257-2259,no
same,Liver Toxicity Necrosis Classification,Sprague Dawley rats; compound-dose group CHEX 0.5; at 72 h,no
same,Liver Toxicity Necrosis Classification,Sprague Dawley rats; compound-dose group CHEX 2; at 72 h,no
same,Liver Toxicity Necrosis Classification,"Sprague Dawley rats; compound-dose group at 72 h, dose 0.5",no
same,Liver Toxicity Necrosis Classification,"Sprague Dawley rats; compound-dose group at 72 h, dose 2",no
same,Liver Toxicity Necrosis Classification,Sprague Dawley rats; compound-dose group at 72 h; dose 2,no
same,Liver Necrosis,"Sprague Dawley rats; rat, intraperitoneal, dose 0.5 mg/kg, 72 hours after treatment",no
same,Score (histopathology liver necrosis severity score),"Sprague Dawley rats; rat, intraperitoneal, dose 0.5 mg/kg, 72 hours; 1 = not remarkable, 2 and higher increasing severity",1
same,Liver Necrosis,"Sprague Dawley rats; rat, intraperitoneal, dose 2 mg/kg, 72 hours after treatment",no
same,Score (histopathology liver necrosis severity score),"Sprague Dawley rats; rat, intraperitoneal, dose 2 mg/kg, 72 hours; 1 = not remarkable, 2 and higher increasing severity",1
